These results are taken from ChEMBL document CHEMBL1201862, “PubChem BioAssay data set” (2004).

The structures appear in SMILES notation. Activity calls are given as the source filed them.

Broadly, the AC50 is the concentration at which the activity in the assay is half-maximal. The CC50 is the concentration giving 50% cytotoxicity. A word on the EC50: it is the concentration at which the effect is half-maximal.

A short description of experiment [1]: HIV-1 AD8 envelope cell-cell fusion blockers – cherry-pick, dose response (AID 652062).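 Note: luciferase signal from cell-cell fusion driven by HIV-1 clade B AD8 Env; potency is for inhibitors of fusion seen as a drop in luminescence.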 The experiment is classed as functional, cell-based.
Experiment [2] in a line: blockers of HIV-1 ZM109 envelope-driven cell-cell fusion – HeLa effector, CEM target cells, luciferase, cherry-pick, dose response (AID 652058).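 Note: luciferase signal from HIV-1 Env mediated cell-cell fusion of effector and target cells.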 The experiment is classed as functional, cell-based.
A short description of experiment [3]: off-target signal loss in HeLa-CEM21 co-culture – HeLa F-luc CTL cells, cherry-picked, counter-screen for HIV-1 Env fusion inhibitor project, dose response (AID 652040).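 Note: potency for signal decrease marking cytotoxic or nonspecific inhibition.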 In kind it is functional, cell-based. A general note: Counterscreens check selectivity or assay interference.
Experiment [4] is described as follows: viability loss in CEM21 cells – cell-based, CellTiter-Glo luminescence, cherry-picked, cytotoxicity control for viral fusion inhibitor project, dose response (AID 652042).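 Note: potency for signal decrease meaning cytotoxicity.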 The experiment is classed as functional. A general note: ATP-based viability assays read luminescence as a measure of living cells.
A short description of experiment [5]: blockers of HIV-1 envelope-mediated cell-cell fusion – cherry-pick, dose response (AID 652057). The experiment is classed as functional, cell-based.
Experiment [6] has as its target T1, Probable nicotinate-nucleotide adenylyltransferase (Staphylococcus aureus (strain N315), UniProt P65502). In kind it is functional, Staphylococcus aureus subsp. aureus N315. To be noted: read-out: IC50_Mean.
Experiment [7] deals with T1, Probable nicotinate-nucleotide adenylyltransferase. The experiment is classed as functional, Staphylococcus aureus subsp. aureus N315.
The target of experiment [8] is T2, Carboxy-terminal domain RNA polymerase II polypeptide A small phosphatase 1 (Homo sapiens, UniProt Q9GZU7).
T2 sequence (Q9GZU7 whole entry): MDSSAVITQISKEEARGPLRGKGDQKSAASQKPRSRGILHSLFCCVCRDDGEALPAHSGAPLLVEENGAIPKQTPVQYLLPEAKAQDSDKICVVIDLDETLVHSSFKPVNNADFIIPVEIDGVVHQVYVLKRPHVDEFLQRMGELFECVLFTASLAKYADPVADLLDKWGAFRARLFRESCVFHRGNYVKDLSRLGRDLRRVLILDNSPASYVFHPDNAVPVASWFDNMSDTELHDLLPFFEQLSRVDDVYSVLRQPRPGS
The experiment is described as follows: CTDSP1 inhibitors, concentration-response, biochemical, absorbance readout, ultra-high-throughput screen actives (AID 540297). In kind it is functional.

Experiment [9] relates to HEK293. Put plainly: EBV LMP1 TES2 canonical NF-kB signalling blockers – cell-based, HEK293, luciferase, cherry-pick, dose response (AID 588343). The experiment is classed as functional. To be noted: Homo sapiens.
The target of experiment [10] is T3, Voltage-gated N-type calcium channel alpha-1B subunit/Amyloid beta A4 precursor protein-binding family A member 1 (Homo sapiens, UniProt Q00975+Q02410). In kind it is protein assay.
T3 sequence (Q00975 whole entry): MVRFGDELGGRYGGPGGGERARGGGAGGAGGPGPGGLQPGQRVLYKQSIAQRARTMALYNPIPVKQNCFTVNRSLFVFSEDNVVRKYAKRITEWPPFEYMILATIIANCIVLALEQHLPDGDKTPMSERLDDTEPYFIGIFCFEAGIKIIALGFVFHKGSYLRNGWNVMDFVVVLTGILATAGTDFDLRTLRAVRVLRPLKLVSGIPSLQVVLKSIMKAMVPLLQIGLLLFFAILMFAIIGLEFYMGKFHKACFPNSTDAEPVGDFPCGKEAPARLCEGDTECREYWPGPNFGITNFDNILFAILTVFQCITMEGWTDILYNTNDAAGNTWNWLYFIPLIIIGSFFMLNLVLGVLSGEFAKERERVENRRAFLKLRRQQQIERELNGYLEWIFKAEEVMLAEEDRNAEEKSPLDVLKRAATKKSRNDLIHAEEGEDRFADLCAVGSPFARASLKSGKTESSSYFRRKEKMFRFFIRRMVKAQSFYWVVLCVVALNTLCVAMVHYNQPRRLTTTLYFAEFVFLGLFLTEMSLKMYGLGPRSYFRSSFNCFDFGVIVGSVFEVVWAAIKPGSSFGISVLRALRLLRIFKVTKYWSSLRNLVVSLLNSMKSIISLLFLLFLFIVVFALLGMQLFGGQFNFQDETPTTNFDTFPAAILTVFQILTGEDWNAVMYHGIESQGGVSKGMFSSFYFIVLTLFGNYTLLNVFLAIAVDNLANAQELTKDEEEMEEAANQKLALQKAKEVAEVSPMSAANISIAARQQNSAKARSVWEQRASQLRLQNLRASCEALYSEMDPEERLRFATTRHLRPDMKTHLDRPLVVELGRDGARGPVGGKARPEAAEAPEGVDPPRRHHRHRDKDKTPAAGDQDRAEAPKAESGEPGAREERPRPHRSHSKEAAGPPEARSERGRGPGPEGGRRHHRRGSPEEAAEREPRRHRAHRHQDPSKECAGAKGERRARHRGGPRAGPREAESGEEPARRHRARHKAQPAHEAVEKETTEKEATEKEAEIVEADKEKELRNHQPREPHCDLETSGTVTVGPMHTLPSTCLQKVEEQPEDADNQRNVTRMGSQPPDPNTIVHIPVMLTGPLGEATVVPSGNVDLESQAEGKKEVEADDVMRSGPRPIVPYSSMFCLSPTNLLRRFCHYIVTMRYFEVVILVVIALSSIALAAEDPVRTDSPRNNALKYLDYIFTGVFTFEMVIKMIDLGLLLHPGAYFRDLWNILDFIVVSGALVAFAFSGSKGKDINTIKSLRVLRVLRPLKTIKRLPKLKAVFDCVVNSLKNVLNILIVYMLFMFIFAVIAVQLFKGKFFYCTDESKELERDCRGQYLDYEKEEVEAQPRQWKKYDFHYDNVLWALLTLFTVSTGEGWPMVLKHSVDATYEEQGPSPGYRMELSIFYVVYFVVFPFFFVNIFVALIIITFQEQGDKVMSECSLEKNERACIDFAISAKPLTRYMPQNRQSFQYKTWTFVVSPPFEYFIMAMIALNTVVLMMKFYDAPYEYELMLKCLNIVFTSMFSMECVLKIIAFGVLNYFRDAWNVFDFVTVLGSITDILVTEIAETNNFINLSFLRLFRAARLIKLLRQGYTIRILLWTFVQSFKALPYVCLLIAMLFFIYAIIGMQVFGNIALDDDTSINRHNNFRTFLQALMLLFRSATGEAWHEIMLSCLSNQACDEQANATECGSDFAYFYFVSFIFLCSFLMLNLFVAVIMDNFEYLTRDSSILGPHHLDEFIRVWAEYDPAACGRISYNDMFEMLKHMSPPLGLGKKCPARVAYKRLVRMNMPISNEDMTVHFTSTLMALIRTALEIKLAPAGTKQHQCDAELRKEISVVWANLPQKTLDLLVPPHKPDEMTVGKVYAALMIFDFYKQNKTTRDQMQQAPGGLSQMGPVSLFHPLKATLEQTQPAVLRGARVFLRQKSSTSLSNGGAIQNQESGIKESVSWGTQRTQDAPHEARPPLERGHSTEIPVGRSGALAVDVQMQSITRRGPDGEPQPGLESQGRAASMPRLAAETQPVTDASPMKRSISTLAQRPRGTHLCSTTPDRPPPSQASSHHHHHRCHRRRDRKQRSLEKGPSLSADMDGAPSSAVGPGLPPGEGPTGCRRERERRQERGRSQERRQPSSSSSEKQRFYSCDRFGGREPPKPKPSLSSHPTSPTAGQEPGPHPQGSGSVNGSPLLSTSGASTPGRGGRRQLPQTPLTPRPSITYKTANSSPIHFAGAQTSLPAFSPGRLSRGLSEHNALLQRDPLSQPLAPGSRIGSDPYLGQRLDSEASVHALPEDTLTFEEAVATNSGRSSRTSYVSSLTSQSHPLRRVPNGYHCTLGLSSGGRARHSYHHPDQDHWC
T3 sequence (Q02410 whole entry): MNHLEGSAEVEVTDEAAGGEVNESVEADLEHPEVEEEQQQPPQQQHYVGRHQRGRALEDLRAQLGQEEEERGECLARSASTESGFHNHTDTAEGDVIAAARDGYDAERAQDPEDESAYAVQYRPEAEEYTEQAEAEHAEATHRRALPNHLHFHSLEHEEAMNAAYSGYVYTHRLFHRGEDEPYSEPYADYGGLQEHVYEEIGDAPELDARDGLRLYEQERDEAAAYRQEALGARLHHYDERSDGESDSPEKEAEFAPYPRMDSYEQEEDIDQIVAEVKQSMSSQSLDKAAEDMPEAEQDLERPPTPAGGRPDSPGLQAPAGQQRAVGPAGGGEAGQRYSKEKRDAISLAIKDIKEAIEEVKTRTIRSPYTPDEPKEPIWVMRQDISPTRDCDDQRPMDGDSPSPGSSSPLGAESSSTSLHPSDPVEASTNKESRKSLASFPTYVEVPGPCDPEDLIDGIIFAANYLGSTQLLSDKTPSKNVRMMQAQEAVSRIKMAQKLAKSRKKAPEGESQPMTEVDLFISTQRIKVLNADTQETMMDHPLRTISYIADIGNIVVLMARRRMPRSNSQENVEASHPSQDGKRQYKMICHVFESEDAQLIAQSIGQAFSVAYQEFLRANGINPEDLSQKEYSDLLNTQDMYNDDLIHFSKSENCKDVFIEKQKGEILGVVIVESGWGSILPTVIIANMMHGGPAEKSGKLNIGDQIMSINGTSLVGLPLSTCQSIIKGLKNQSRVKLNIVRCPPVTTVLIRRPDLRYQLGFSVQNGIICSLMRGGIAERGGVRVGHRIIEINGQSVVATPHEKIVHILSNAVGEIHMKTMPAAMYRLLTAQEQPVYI
Experiment [11] has as its target T3, Voltage-gated N-type calcium channel alpha-1B subunit/Amyloid beta A4 precursor protein-binding family A member 1. The experiment is classed as protein assay. The source holds these as a separate data set.
Experiment [12] addresses T4, Low molecular weight phosphotyrosine protein phosphatase (Homo sapiens, UniProt P24666).
T4 sequence (P24666 whole entry): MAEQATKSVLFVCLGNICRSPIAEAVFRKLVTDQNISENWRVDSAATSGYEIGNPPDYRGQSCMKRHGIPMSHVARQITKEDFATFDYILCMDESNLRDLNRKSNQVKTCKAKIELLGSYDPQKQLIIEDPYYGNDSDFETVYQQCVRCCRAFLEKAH
The experiment is classed as functional. To be noted: read-out: IC50_Mean.

The target of experiment [13] is Fructose-bisphosphate aldolase (Mycobacterium tuberculosis, UniProt P9WQA3). Put plainly: Fluorescence-based biochemical high throughput dose response assay for inhibitors of the fructose-bisphosphate aldolase (FBA) of M. tuberculosis. In kind it is functional.
Fructose-bisphosphate aldolase, sequence (P9WQA3 whole entry): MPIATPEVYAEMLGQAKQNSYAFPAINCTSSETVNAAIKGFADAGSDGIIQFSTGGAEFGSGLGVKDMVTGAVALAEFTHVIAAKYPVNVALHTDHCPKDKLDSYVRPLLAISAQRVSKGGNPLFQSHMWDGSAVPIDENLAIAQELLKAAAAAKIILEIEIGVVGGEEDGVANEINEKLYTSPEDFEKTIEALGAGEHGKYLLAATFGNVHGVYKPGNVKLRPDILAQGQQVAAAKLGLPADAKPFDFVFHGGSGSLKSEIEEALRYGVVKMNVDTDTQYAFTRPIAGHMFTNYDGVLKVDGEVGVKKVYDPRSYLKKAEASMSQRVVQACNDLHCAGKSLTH
Experiment [14] is described as follows: viability loss in HeLa cells – cytotoxicity control for MgcRacGAP inhibitor project, dose response (AID 624300). The experiment is classed as functional.
The target of experiment [15] is T5, Rac GTPase-activating protein 1 (Homo sapiens, UniProt Q9H0H5).
T5 sequence (Q9H0H5 whole entry): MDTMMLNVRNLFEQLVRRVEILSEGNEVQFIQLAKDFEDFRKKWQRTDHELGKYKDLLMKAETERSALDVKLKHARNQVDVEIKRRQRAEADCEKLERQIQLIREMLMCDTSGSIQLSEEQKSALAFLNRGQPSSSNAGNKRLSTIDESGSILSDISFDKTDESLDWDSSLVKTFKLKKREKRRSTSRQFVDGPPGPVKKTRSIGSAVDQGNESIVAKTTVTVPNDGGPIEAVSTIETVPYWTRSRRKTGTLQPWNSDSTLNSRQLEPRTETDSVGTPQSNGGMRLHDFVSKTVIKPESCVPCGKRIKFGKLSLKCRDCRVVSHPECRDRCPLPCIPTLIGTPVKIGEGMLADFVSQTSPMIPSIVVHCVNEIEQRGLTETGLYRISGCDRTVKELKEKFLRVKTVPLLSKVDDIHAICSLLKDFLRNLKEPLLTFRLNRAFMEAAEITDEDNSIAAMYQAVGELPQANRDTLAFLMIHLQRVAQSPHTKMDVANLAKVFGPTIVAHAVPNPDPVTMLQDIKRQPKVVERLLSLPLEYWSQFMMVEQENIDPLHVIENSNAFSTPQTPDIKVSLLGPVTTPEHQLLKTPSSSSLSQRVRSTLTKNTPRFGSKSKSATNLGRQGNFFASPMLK
Put plainly: blockers of MgcRacGAP-driven Rac1 GTP hydrolysis – biochemical, ADP Hunter fluorescence, primary and confirmatory, confirmation (AID 624330). The experiment is classed as functional.

Experiment [16] in a line: Fluorescence-based cell-based high throughput dose response assay for inhibitors of the interaction of nucleotide-binding oligomerization domain containing 2 (NOD2) and the receptor-interacting serine-threonine kinase 2 (RIPK2). The experiment is classed as functional. Conditions: Homo sapiens.
Experiment [17] deals with Induced myeloid leukemia cell differentiation protein Mcl-1 (Homo sapiens, UniProt Q07820). In kind it is functional.
Induced myeloid leukemia cell differentiation protein Mcl-1, sequence (Q07820 whole entry): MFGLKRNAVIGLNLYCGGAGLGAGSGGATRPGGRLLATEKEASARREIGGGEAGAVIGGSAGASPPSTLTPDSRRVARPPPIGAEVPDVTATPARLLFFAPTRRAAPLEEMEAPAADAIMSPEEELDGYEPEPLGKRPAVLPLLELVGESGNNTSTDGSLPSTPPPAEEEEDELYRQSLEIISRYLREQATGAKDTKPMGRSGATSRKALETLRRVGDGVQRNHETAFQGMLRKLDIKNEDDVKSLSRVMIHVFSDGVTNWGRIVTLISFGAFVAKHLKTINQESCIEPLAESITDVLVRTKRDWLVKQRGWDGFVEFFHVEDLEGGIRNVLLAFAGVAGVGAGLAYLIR
For experiment [18], the system named is HEK293. Put plainly: cells. To be noted: Homo sapiens.
Another experiment is described as follows: cells. In kind it is functional, cell-based.
Experiment [19] addresses T6, Nuclear receptor subfamily 0 group B member 1 (Homo sapiens, UniProt P51843).
T6 sequence (P51843 whole entry): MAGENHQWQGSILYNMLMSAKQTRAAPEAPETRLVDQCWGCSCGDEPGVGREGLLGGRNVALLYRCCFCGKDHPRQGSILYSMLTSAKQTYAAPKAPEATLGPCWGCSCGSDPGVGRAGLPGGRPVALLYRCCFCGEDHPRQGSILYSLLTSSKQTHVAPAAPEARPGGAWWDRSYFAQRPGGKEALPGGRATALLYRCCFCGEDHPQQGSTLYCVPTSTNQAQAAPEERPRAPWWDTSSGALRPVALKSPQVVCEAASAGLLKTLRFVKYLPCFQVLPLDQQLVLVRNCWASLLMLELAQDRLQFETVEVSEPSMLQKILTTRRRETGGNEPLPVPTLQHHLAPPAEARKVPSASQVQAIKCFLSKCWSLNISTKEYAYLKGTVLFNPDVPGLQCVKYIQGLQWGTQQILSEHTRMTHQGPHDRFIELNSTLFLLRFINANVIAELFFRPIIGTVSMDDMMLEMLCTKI
The experiment is classed as functional, cell-based.

The nature of experiment [20]: NIH3T3 cell viability loss – ATP luminescence, mouse fibroblasts, counter-screen, dose response (AID 2010).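 Note: cells exposed to compound for about 90 hours before reading.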 The experiment is classed as functional, cell-based.
Experiment [21] can be described thus: fluconazole-exposed Candida albicans growth modulators – fluorescence, retest, confirmation (AID 2467). In kind it is functional, cell-based.
Experiment [22] is described as follows: NIH-3T3 fibroblast cytotoxicity, dose response, cytotoxicity control, cell-based, fluorescence, Alamar Blue, secondary assay (AID 2327).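 Note: NIH-3T3 mouse fibroblasts cultured with fluconazole at 8 µg/mL.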 In kind it is functional. (The colour change of resazurin is a common sign of viable cells or microbes.)
Experiment [23] concerns the target Photoreceptor-specific nuclear receptor (Homo sapiens, UniProt Q9Y5X4). In kind it is functional, cell-based.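 Note: CHO-S cells with Gal4-NCOR and VP16-NR2E3 two-hybrid luciferase reporter.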
The test system of experiment [24] is HEK293. The experiment is described as follows: cells. Conditions: Homo sapiens. The source holds these as a separate data set.
Experiment [25] in a line: Trypanosoma cruzi growth suppression in host cells – NIH3T3 host cells, beta-gal luminescence, confirmation (AID 2044).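 Note: intracellular parasites grown in NIH/3T3 mouse fibroblasts as host cells; luminescent beta-galactosidase reporter signal from transgenic T. cruzi replicating inside host cells; inhibitors lower the luminescence signal.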 In kind it is functional, cell-based.

T1 sequence (P65502 whole entry): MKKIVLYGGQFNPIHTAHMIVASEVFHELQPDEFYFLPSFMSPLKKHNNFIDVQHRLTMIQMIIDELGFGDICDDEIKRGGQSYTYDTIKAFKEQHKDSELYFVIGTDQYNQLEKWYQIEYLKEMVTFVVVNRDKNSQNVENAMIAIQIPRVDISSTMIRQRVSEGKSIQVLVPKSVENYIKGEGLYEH
Photoreceptor-specific nuclear receptor, sequence (Q9Y5X4 whole entry, the tested form may be a part): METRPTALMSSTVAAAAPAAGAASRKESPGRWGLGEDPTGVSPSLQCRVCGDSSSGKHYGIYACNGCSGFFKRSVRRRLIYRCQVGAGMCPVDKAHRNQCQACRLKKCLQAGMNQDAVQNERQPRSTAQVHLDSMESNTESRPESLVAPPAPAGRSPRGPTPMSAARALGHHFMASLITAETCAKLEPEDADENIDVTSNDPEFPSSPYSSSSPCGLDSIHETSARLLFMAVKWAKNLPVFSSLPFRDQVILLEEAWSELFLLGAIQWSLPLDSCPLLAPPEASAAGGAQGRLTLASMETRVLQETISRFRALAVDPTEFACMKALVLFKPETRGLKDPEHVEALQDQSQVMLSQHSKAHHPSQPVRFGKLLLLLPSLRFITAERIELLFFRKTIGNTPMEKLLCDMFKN

With `Cn1c(NCc2c(O)ccc3ccccc23)nc2ccccc21`, the AC50 in experiment [1] was 28.9 µM (active); in experiment [2], 22.1 µM (active); in [3], 40.6 µM (active); in experiment [4], 58.1 µM (active); in experiment [5] it was 15.4 µM (active).

As for `Cc1ccccc1C(=O)Nc1cc[n+](-c2nc3ccccc3nc2[N-]S(=O)(=O)c2ccc(F)cc2)cc1`, the figures for the IC50 in experiment [6] and in experiment [7] were 23.8 µM (active) and 5.96 µM (active), respectively.

For `COc1ccc2cc3c(N)nn(C(=O)c4cccc([N+](=O)[O-])c4)c3nc2c1`, the IC50 was 4.35 µM (active) in experiment [8], > 50 µM (inactive) in experiment [10], 12.2 µM (active) in experiment [11] and 19.1 µM (active) in experiment [12]. The AC50 in the experiment with HEK293 [9] is 3.08 µM (active).

Regarding `Cc1ccc(-n2nc3ccc(N)cc3n2)cc1C`, in experiment [13], the IC50 was 0.895 µM (active).

As to `CN(C)CCC(=O)N1C/C(=C/c2ccccc2)C(=O)/C(=C\c2ccccc2)C1`, the CC50 in experiment [14] was 25 µM (active). Moreover, the IC50 was 167 µM (active) in [15] and 3.78 µM (active) in experiment [16].

With `Cn1c(/C=N/n2cnnc2)nc2ccccc21`, in experiment [13], the IC50 is 1.54 µM (active).

For the molecule `C/C(=N\NC(=O)c1cccc(N/N=C(\C)c2ccco2)c1)c1ccco1`, the IC50 was 3.17 µM (active) in experiment [8], 14.8 µM (active) in [6], 3.19 µM (active) in experiment [17] and 10.6 µM (active) in [7].

Regarding `COc1cc2c(O)c3c(c(-c4ccc5c(c4)OCO5)c2cc1OC)C(=O)OC3` [DIPHYLLIN], the EC50 in the experiment with HEK293 [18] is > 59.7 µM (inactive); in experiment [20], > 30 µM (not active); in experiment [21], 2.59 µM (active); in experiment [22], 33.5 µM (active); in the experiment on HEK293 [24] it was > 59.7 µM (inactive); in experiment [25], 1.65 µM (active). In addition, the IC50 in the experiment “cells” was > 67.6 µM (inactive); in experiment [19], > 67.6 µM (inactive); in [23], 0.962 µM (active).
